± gives the expanded uncertainty stated by the source.
Assay: relative permittivity at various frequencies (dimensionless)
Details: 100 kPa, Liquid, Frequency=2 MHz, Parallel plate capacitor

CCc1cccs1 [2-ethylthiophene]
Details | relative permittivity
278.15 K | 2.968 ± 0.33
280.65 K | 2.959 ± 0.33
283.15 K | 2.946 ± 0.33
285.65 K | 2.936 ± 0.33
288.15 K | 2.929 ± 0.33
290.65 K | 2.916 ± 0.33
293.15 K | 2.911 ± 0.33
295.65 K | 2.9 ± 0.33
298.15 K | 2.887 ± 0.33
300.65 K | 2.878 ± 0.33
303.15 K | 2.871 ± 0.33
305.65 K | 2.858 ± 0.33
308.15 K | 2.848 ± 0.33
310.65 K | 2.838 ± 0.33
313.15 K | 2.833 ± 0.33
315.65 K | 2.82 ± 0.32
318.15 K | 2.81 ± 0.32
320.65 K | 2.799 ± 0.32
323.15 K | 2.792 ± 0.32
325.65 K | 2.782 ± 0.32
328.15 K | 2.775 ± 0.32
330.65 K | 2.766 ± 0.32
333.15 K | 2.753 ± 0.32
335.65 K | 2.745 ± 0.32
338.15 K | 2.734 ± 0.32

CCc1ccco1 [2-ethylfuran]
Details | relative permittivity
278.15 K | 2.837 ± 0.33
280.65 K | 2.823 ± 0.32
283.15 K | 2.813 ± 0.32
285.65 K | 2.798 ± 0.32
288.15 K | 2.784 ± 0.32
290.65 K | 2.766 ± 0.32
293.15 K | 2.756 ± 0.32
295.65 K | 2.739 ± 0.32
298.15 K | 2.725 ± 0.32
300.65 K | 2.709 ± 0.32
303.15 K | 2.699 ± 0.32
305.65 K | 2.682 ± 0.32
308.15 K | 2.668 ± 0.32
310.65 K | 2.657 ± 0.32
313.15 K | 2.643 ± 0.32
315.65 K | 2.626 ± 0.32
318.15 K | 2.611 ± 0.32
320.65 K | 2.601 ± 0.32
323.15 K | 2.583 ± 0.31
325.65 K | 2.573 ± 0.31
328.15 K | 2.559 ± 0.31
330.65 K | 2.544 ± 0.31
333.15 K | 2.527 ± 0.31
335.65 K | 2.516 ± 0.31
338.15 K | 2.503 ± 0.31
